Broadly, the IC50 is the concentration at which inhibition is half-maximal. A word on the LD50: it is the dose expected to kill half of the subjects tested. By bioavailability is commonly meant the share of a dose that reaches the circulation, judged against a reference dose that is usually intravenous.

For data set [1], the system named is U87MG cells (human malignant glioma cells). The experiment in a line: CCK-8 anti-proliferation assay, U87MG cells. The format is cell-based. The conditions noted are these: U-87 MG, CCK-8, 72 hours incubation, read-out: U87MG cell IC50. As to the method: (§1) The anti-proliferation activities of compounds 1-11 to U87MG cells (human malignant glioma cells, ATCC 5018014), NCI-H1975 cells (human non-small cell lung adenocarcinoma cells, ATCC 57849016), A549 cells (human non-small cell lung cancer cells, ATCC 7503618), HCT 116 (human colon cancer cells, ATCC 4587576), and MCF-7 (human breast cancer cells, ATCC 5105360) were verified by using a CCK-8 method.
(§2) A sample stock solution with a concentration of 20 μM was prepared first. The stock solution was sequentially diluted to obtain 10 samples with concentrations of 20000 nM, 4000 nM, 800 nM, 160 nM, 32 nM, 6.4 nM, 1.28 nM, 0.256 nM, 0.0512 nM, and 0.01024 nM, respectively.
(§3) 50 μL of cell suspension with density of 2*10^4 cells/mL was prepared in 96-well plates followed by pre-culturing in the incubator for 24 hours (37° C., 5% CO2). 50 μL of afore-mentioned sample solution was added into each well. After incubated for 72 hours, 10 μl of CCK-8 solution was added into each well, and then further incubated for additional 2 hours.
A general note: Tetrazolium assays rely on reduction of a dye to a coloured formazan, in cell work by metabolically active cells.

Data set [2] concerns NCI-H1975 cells (human non-small cell lung adenocarcinoma cells). The experiment in a line: CCK-8 anti-proliferation assay, NCI-H1975 cells. The format is cell-based. The conditions noted are these: CCK-8, 72 hours incubation. On the procedure:
as §1, §2, §3

In data set [3] the test system is A549 cells (human non-small cell lung cancer cells). Nature of the data set: CCK-8 anti-proliferation assay, A549 cells. The format is cell-based. The conditions noted are these: CCK-8, 72 hours incubation. As to the method: as §1, §2, §3
The subject of data set [4] is HCT 116 (human colon cancer cells). Nature of the data set: CCK-8 anti-proliferation assay, HCT 116 cells. In kind it is cell-based. As to conditions: CCK-8, 72 hours incubation, read-out: HCT116 cell IC50. On the procedure: as §1, §2, §3
Data set [5] concerns MCF-7 (human breast cancer cells). The experiment in a line: CCK-8 anti-proliferation assay, MCF-7 cells. In kind it is cell-based. The conditions noted are these: MCF7, CCK-8, 72 hours incubation, read-out: MCF-7 cell IC50. As to the method:
as §1, §2, §3

The nature of data set [6]: Determination of half-lethal dose (LD50) in mice. The conditions noted are these: both sexes, mouse, in vivo, Kunming mice, gastric administration, Bliss calculation method. On the procedure: The SPF-grade Kunming mice, belonging to the outbred stock and weighing 20±2 g, were selected (a ratio of the males to the females was 1:1). The dosage range of each compound was explored through pre-experiments. After that, formal tests were carried out. In the range of 0-100% of the lethal dose obtained by the pre-experiments, five doses were selected to increase or decrease according to the isobaric series to allow the mortality of one half of the groups to be 50% or above, and the other half to be 50% or less. After animal grouping and dosage calculation were completed, gastric administration was performed according to the group. The time from the administration to the beginning of the occurrence of toxic reaction, the poisoning phenomenon and the occurrence sequence thereof, the time of the first occurrence of death, the time of death concentration, and the time of the last occurrence of death were recorded. The number of deaths in each group was recorded day by day.

For data set [7] the following is noted: oral administrated; cited from earlier work.
For data set [8] the following is noted: in vivo; cited from earlier work.

Each structure is given as a SMILES string.

For the compound `N#CCCNc1nonc1-c1nc2c(O)cccc2n1CC(F)(F)c1ccc(N)cc1` [Compound 2], the IC50 was found to be 22.4 nM in data set [1]; 31.2 nM in data set [2]; 18.2 nM in data set [3]; 28.3 nM in data set [4]; 17.4 nM in data set [5]. Also, in data set [6] (oral), the LD50 is 245 mg/kg.

As to `N#CCCNc1nonc1-c1nc2cc(O)ccc2n1CC(F)(F)c1ccc(N)cc1` [Compound 3], the IC50 is 13.2 nM in data set [1]; 13.3 nM in data set [2]; 26.8 nM in data set [3]; 13.6 nM in data set [4]; 13.2 nM in data set [5]. Besides, the LD50 in data set [6] (oral) is 239 mg/kg.

Consider `N#CCCNc1nonc1-c1nc2ccccc2n1CCC(F)(F)c1ccc(N)cc1` [Compound 10], for which the IC50 in data set [1] was found to be 41.2 nM; in data set [2], 34.3 nM; in data set [3] it was 41.5 nM; in data set [4], 38.7 nM; in data set [5], 38.5 nM. In data set [6] (oral), the LD50 was 323 mg/kg.

Consider `N#CCCNc1nonc1-c1nc2ccccc2n1CC(F)(F)c1ccc(N)cc1` [Compound 1, 3-[(4-{1-[2-(4-aminophenyl)-2,2-difluoroethyl]-1H-benzimidazol-2-yl}-1,2,5-oxadiazol-3-yl)amino] propionitrile], for which the IC50 in data set [1] was determined as 31.3 nM; in data set [2] it was 19.4 nM; in data set [3] it was 29 nM; in data set [4], 19.7 nM; in data set [5], 33 nM. Further, the LD50 in data set [6] (oral) was 267 mg/kg.

With `Cc1ccc2c(c1)nc(-c1nonc1NCCC#N)n2CC(F)(F)c1ccc(N)cc1` [Compound 7], the IC50 was 12.5 nM in data set [1]; 32.4 nM in data set [2]; 13.9 nM in data set [3]; 13.7 nM in data set [4]; 25.7 nM in data set [5]. Also, the LD50 in data set [6] (oral) is 239 mg/kg.

Turning to `Cn1nnc2c(C(N)=O)ncn2c1=O` [Temozolomide], the bioavailability in data set [7] is listed as roughly 100%. Besides, the “crossing the blood-brain barrier” value in data set [8] is “can cross the blood-brain barrier”.

Consider `N#CCCNc1nonc1-c1nc2cc(C(F)(F)F)ccc2n1CC(F)(F)c1ccc(N)cc1` [Compound 6], for which the IC50 in data set [1] is 34.2 nM; in data set [2], 11.9 nM; in data set [3], 14.7 nM; in data set [4], 17.2 nM; in data set [5], 13.2 nM. In addition, the LD50 in data set [6] (oral) is 254 mg/kg.

Turning to `N#CCCNc1nonc1-c1nc2cc(Cl)ccc2n1CC(F)(F)c1ccc(N)cc1` [Compound 5], the IC50 in data set [1] was found to be 15.7 nM; in data set [2] it was 27.4 nM; in data set [3], 13.2 nM; in data set [4] it was 35.8 nM; in data set [5] it was 16.9 nM. For the same compound, the LD50 in data set [6] (oral) is 264 mg/kg.

On to `N#CCCNc1nonc1-c1nc2ccccc2n1CC(=O)c1ccc(N)cc1` [Compound 11, 3-{[4-(1-(4-aminoacetophenone)-benzimidazol-2-yl)-1,2,5-oxadiazol-3-yl]amino}propionitrile, reference compound], for which the IC50 stood at 51.2 nM in data set [1]; 42.8 nM in data set [2]; 42.4 nM in data set [3]; 52.6 nM in data set [4]; 39.2 nM in data set [5]. The LD50 in data set [6] was 153 mg/kg. Further, in data set [8], the “crossing the blood-brain barrier” value was “capable of crossing the blood-brain barrier”.

As to `N#CCCNc1nonc1-c1nc2ccccc2n1C(F)(F)c1ccc(N)cc1` [Compound 9], the IC50 in data set [1] is 23.9 nM; in data set [2], 19.8 nM; in data set [3] it was 28.7 nM; in data set [4], 28.5 nM; in data set [5] it was 32.8 nM. The LD50 in data set [6] (oral) was 305 mg/kg.

Turning to `N#CCCNc1nonc1-c1nc2c(Cl)cccc2n1CC(F)(F)c1ccc(N)cc1` [Compound 4], the IC50 in data set [1] is 27.3 nM; in data set [2], 14.9 nM; in data set [3], 12.9 nM; in data set [4] it was 12.1 nM; in data set [5], 21.7 nM. Besides, the LD50 in data set [6] (oral) is 262 mg/kg.

Regarding `N#CCCNc1nonc1-c1nc2ccccc2n1CC(F)c1ccc(N)cc1` (stereo not drawn) [Compound 8, 3-[(4-{1-[2-(4-aminophenyl)-2-fluoroethyl]-1H-benzimidazol-2-yl}-1,2,5-oxadiazol-3-yl)amino] propionitrile], the IC50 came out at 15.6 nM in data set [1]; 17.5 nM in data set [2]; 33.7 nM in data set [3]; 24.4 nM in data set [4]; 22.8 nM in data set [5]. Moreover, in data set [6] (oral), the LD50 was 291 mg/kg.

The values are drawn from patent US11787790B2, “Benzimidazole derivative having fluorine-containing substituent, preparation and application thereof” (YUNBAIYAO ZHENGWU SCIENCE AND TECHNOLOGY (SHANGHAI) CO., …, priority 2020, dated 2023).
